Laboratory results from patent publication US11903981B2, “Use of Anaerofustis stercorihominis in preventing and/or treating metabolic diseases” (priority 2018, dated 2024).
Marks after values point to notes of the source that are not given here.

How the values were obtained:
Assay type in all cases: in vivo
[1] = tested on: SD rats, myocardial ischemia induced by pituitrin; assay: Experimental myocardial ischemia in rats induced by pituitrin, ST-segment displacement; settings: gavage daily for 10 days, pituitrin 1 unit/kg iv., **P<0.01, *P<0.05 relative to model group
Procedure: Fifty SD rats (purchased from Guangdong Medical Experimental Animal Center, half male and half female) at 180-220 g of body weight and 6 weeks old were used in this experiment, which were normally fed in a Specific pathogen Free (SPF) environment. The rats were adaptively fed for 1 week and then randomly divided into 5 groups, with 10 rats in each group.
Model group: the rats were fed with 2.5 ml/kg PBS by gavage daily for 10 consecutive days; Bacterial agent group 1: the rats were fed with 2.5 ml/kg AM25-6 bacterial solution (1×10^9 cfu/ml) by gavage daily for 10 consecutive days;
Bacterial agent group 2: the rats were fed with 2.5 ml/kg DSM 17244 bacterial solution (1×10^9 cfu/ml) by gavage daily for 10 consecutive days;
Bacterial agent group 3: the rats were fed with 2.5 ml/kg DSM 28733 bacterial solution (1×10^9 cfu/ml) by gavage daily for 10 consecutive days;
FuFangDanShen tablet group: the rats were fed with 2 g/kg FuFangDanShen tablet (SFDA approval number Z21020381, Tianjin Tasly (Liaoning) Pharmaceutical Co., Ltd.) by gavage daily for 10 consecutive days.
For each group, the standard lead I electrocardiogram was recorded post 1 hour of last administration, followed by sublingual intravenous injection (iv.) with pituitrin (SFDA approval number H31022259, specifications: 2 ml: 6 units, from Shanghai First Biochemical & Pharmaceutical Industry Co., Ltd.) in 1 unit/kg (in a volume of 1 ml/kg) within 15 seconds, after which the change of electrocardiogram was recorded post 5 seconds, 15 seconds, 30 seconds, 1 minute, 2 minutes, 3 minutes and 5 minutes, and the change of ST segment displacement before and after administration of pituitrin was measured and compared, with statistical analysis by using t test between groups.

[2] = tested on: T2D mice model (C57bL/6 mice); assay: T2D animal model, fasting blood glucose
Procedure: (§1) The T2D animal model is constructed by using C57bL/6 mice (purchased from Guangdong Medical Experimental Animal Center) at 8 weeks old and 20±2 g of body weight. The mice were housed in a specific pathogen free (SPF) environment and adaptively fed for 1 week, followed by grouping and modeling. The T2D animal model is induced by injection of streptozotocin (STZ) along with feeding high-fat feed, and the mice having fasting blood glucose (FBG) reaching to 10 mM/L can be used as a T2D mice model. Fifty mice selected for experiments are randomly divided into 5 groups.
(§2) Bacterial agent group 1: the T2D mice model was administered with the AM25-6 bacterial solution (1×10^8 cfu/ml) by gavage;
(§3) Bacterial agent group 2: the T2D mice model was administered with the DSM 17244 bacterial solution (1×10^8 cfu/ml) by gavage;
(§4) Bacterial agent group 3: the T2D mice model was administered with the DSM 28733 bacterial solution (1×10^8 cfu/ml) by gavage;
(§5) Metformin treatment group: the T2D mice model was treated with the positive drug metformin.
(§6) The experiment was carried out based on the different groups. After the construction of T2D mice model (i.e., FBG>10), the treatment was started and lasted for 2 months. The food intake amount and body weight of mice were recorded daily. Blood of mice was collected from the tail vein every week for detection of fasting blood glucose. The oral glucose tolerance test (OGTT) of mice was measured at week 4 of treatment and at the end of the experiment.

[3] = tested on: T2D mice model (C57bL/6 mice); assay: T2D animal model, oral glucose tolerance test (OGTT); settings: for Blood glucose in OGTT, 0 minute: 0 minute after glucose by gavage; for Blood glucose in OGTT, 30 minutes: 30 minutes after glucose by gavage; for Blood glucose in OGTT, 60 minutes: 60 minutes after glucose by gavage; for Blood glucose in OGTT, 90 minutes: 90 minutes after glucose by gavage; for Blood glucose in OGTT, 120 minutes: 120 minutes after glucose by gavage
Procedure: as §1, §6
The results of oral glucose tolerance test (OGTT) for mice shown in Table 8 indicate that the blood glucose of mice reaches the highest level (i.e., 17.8-23.1 mmol/L) at 30 minutes upon administration of glucose by gavage. […] From the perspective of overall glucose tolerance process, it can be seen that Anaerofustis stercorihominis can effectively ameliorate glucose intolerance in diabetic mice.

[4] = tested on: obesity mice model (C57BL/6 male mice, high-fat feed); assay: Obesity animal model (high-fat feed), body weight; settings: bacterial solution 1×10^8 cfu/ml by gavage; for Weight of mice, Week 9: Week 9, *P<0.05 relative to model group
Procedure: The obesity animal model is constructed by using C57BL/6 male mice (purchased from Guangdong Medical Experimental Animal Center) at 8 weeks old and 20±2 g of body weight, which is housed in a specific pathogen free (SPF) environment and access to food and water ad lib. The mice are randomly divided into 5 groups, with 10 mice in each group.
Bacterial agent group 1: mice were fed with high-fat feed every day, in which the AM25-6 bacterial solution (1×10^8 cfu/ml) was administered by gavage for 9 weeks after 4 weeks of feeding high-fat feed;
Bacterial agent group 2: mice were fed with high-fat feed every day, in which the DSM 17244 bacterial solution (1×10^8 cfu/ml) was administered by gavage for 9 weeks after 4 weeks of feeding high-fat feed;
Bacterial agent group 3: mice were fed with high-fat feed every day, in which the DSM 28733 bacterial solution (1×10^8 cfu/ml) was administered by gavage for 9 weeks after 4 weeks of feeding high-fat feed;
Obesity model group: mice were fed with high-fat feed every day, in which the culture medium in a same amount was administered by gavage for 9 weeks after 4 weeks of feeding high-fat feed.
During the experimental period, experimental data such as the body weight, body condition and food intake amount of mice were recorded every week. After the completion of experiment, the mice were sacrificed, and the fat weight was recorded and the serum was collected for detecting blood lipids by using the Elisa kit.

[5] = tested on: C57bL/6 mice fed with high-fat feed; assay: Hyperlipidemia animal model (high-fat feed), blood lipids and blood viscosity; settings: for blood viscosity: carotid artery blood, hemorheological examination; for HDLC (high-density lipoprotein) / LDLC (low-density lipoprotein) / TC (total cholesterol) / TG (triglyceride): serum, bacterial solution 2 ml 1×10^9 cfu/ml daily or tablets 0.6 g/kg
Procedure: Sixty C57bL/6 mice (purchased from Guangdong Medical Experimental Animal Center) at 6 weeks old were used in this experiment, which were normally fed in a Specific pathogen Free (SPF) environment. The mice were adaptively fed for 1 week and then randomly divided into 6 groups, with 10 mice in each group. The animal model is constructed along with intervention.
Bacterial agent group 1: the mice were fed with high-fat feed and 2 ml of AM25-6 bacterial solution (1×10^9 cfu/ml) daily;
Bacterial agent group 2: the mice were fed with high-fat feed and 2 ml of DSM 17244 bacterial solution (1×10^9 cfu/ml) daily;
Bacterial agent group 3: the mice were fed with high-fat feed and 2 ml of DSM 28733 bacterial solution (1×10^9 cfu/ml) daily;
Tongmai Jiangzhi tablet group (a positive drug for the treatment of hyperlipidemia): the mice were fed with high-fat feed and 0.6 g/kg Tongmai Jiangzhi tablets;
Experimental data such as the body condition, food intake amount and the like of mice was recorded every week before and after the intervention of the model. After the completion of experiment, the mice were sacrificed, and the fat content was recorded, the serum was collected for detection of blood lipid contents (including total cholesterol (TC), triglyceride (TG), high-density lipoprotein (HDLC) and low-density lipoprotein (LDLC)) in the serum according to the instruction of kit. Blood from the last carotid artery was taken for hemorheological examination.

[6] = tested on: T2D mice model (C57bL/6 mice); assay: T2D animal model (STZ plus high-fat feed), body weight; settings: gavage
Procedure: as §1, §2, §3, §4, §5, §6

[7] = Week 9, *P<0.05 relative to model group

Substance	ST-segment displacement (±S) [1]	Fasting blood glucose, Week 1 [2] [mmol/L]	Fasting blood glucose, Week 3 [2] [mmol/L]	Fasting blood glucose, Week 5 [2]	Fasting blood glucose, Week 7 [2]	Fasting blood glucose, Week 9 [2]	Blood glucose in OGTT, 0 minute [3] [mmol/L]	Blood glucose in OGTT, 30 minutes [3] [mmol/L]	Blood glucose in OGTT, 60 minutes [3] [mmol/L]	Blood glucose in OGTT, 90 minutes [3]	Blood glucose in OGTT, 120 minutes [3] [mmol/L]	Weight of mice, Week 1 [4] [g]	Weight of mice, Week 3 [4] [g]	Weight of mice, Week 5 [4] [g]	Weight of mice, Week 7 [4] [g]	Weight of mice, Week 9 [4]	blood viscosity [5]	HDLC (high-density lipoprotein) [5] [mmol/L]	LDLC (low-density lipoprotein) [5]	TC (total cholesterol) [5]	further results
Anaerofustis stercorihominis AM25-6 [Bacterial agent group 1]	0.017 ± 0.011** mv	16.1	15.6	13.2* mmol/L	10.4** mmol/L	8.6** mmol/L	9.1	17.8	15.9	11.5* mmol/L	10.1	21.13	22.59	23.98	24.13	25.47* g	1.26*	3.219	1.454* mmol/L	4.014* mmol/L	TG (triglyceride) [5]: 0.893* mmol/L; Body weight ([6]; Week 1): 22.34 g; Body weight ([6]; Week 3): 23.57 g; Body weight ([6]; Week 5): 24.26 g; Body weight ([6]; Week 7): 25.53 g; Body weight [6, 7]: 25.97* g
Anaerofustis stercorihominis DSM 17244 [Bacterial agent group 2]	0.018 ± 0.012** mv	15.8	15.7	14.6 mmol/L	11.7* mmol/L	9.0** mmol/L	9.7	18.0	14.9	12.1* mmol/L	9.9	20.15	21.78	22.99	23.88	25.62* g	1.29*	3.219	1.585* mmol/L	4.021* mmol/L	TG (triglyceride) [5]: 0.933* mmol/L; Body weight ([6]; Week 1): 21.55 g; Body weight ([6]; Week 3): 22.43 g; Body weight ([6]; Week 5): 23.78 g; Body weight ([6]; Week 7): 25.13 g; Body weight [6, 7]: 25.58* g
Anaerofustis stercorihominis DSM 28733 [Bacterial agent group 3]	0.020 ± 0.012** mv	16.7	15.5	13.6* mmol/L	10.4** mmol/L	7.8** mmol/L	9.6	18.2	15.6	11.7* mmol/L	10.2	21.19	22.44	23.78	24.19	25.67* g	1.25*	3.311	1.423* mmol/L	4.017* mmol/L	TG (triglyceride) [5]: 0.912* mmol/L; Body weight ([6]; Week 1): 21.76 g; Body weight ([6]; Week 3): 23.36 g; Body weight ([6]; Week 5): 24.57 g; Body weight ([6]; Week 7): 25.14 g; Body weight [6, 7]: 25.45* g
